Results taken from US20240246942A1, “KINASE INHIBITORS FOR THE TREATMENT OF NEURODEGENERATIVE DISEASES” (priority 2020, published 2024).

What was measured:
Test in all cases: biochemical
[1] = molecular target: T1, panel of 374 wild-type kinases (Homo sapiens, UniProt Q76MJ5); details: read-out: % Enzyme Activity (relative to DMSO controls), ERN2/IRE2
T1 construct: purchased Reaction Biology Corporation

[2] = molecular target: T2, panel of 374 wild-type kinases (Homo sapiens, UniProt Q8N568); details: read-out: % Enzyme Activity (relative to DMSO controls), DCAMKL2
T2 construct: purchased Reaction Biology Corporation
T2 sequence (Q8N568 1-766): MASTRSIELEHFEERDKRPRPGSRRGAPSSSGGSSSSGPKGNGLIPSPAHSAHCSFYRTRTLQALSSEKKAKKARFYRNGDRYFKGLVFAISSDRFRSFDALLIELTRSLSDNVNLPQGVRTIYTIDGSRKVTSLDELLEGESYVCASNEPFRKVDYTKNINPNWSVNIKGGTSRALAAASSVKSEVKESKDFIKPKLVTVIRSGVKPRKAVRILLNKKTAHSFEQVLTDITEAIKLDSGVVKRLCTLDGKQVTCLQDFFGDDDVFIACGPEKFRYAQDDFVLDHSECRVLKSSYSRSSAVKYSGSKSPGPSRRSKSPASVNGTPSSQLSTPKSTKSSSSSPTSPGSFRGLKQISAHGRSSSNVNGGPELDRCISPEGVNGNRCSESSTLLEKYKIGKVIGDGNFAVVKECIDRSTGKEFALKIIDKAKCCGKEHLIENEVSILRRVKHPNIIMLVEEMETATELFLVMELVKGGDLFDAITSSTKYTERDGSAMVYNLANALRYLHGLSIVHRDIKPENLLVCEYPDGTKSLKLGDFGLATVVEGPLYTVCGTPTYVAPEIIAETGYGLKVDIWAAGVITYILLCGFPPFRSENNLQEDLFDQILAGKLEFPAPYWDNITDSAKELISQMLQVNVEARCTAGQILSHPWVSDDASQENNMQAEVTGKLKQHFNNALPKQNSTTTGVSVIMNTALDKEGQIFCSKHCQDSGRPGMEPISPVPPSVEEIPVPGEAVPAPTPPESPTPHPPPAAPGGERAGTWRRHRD

[3] = molecular target: T3, panel of 374 wild-type kinases (Homo sapiens, UniProt P35626); details: read-out: % Enzyme Activity (relative to DMSO controls), GRK3
T3 construct: purchased Reaction Biology Corporation
T3 sequence (P35626 1-688): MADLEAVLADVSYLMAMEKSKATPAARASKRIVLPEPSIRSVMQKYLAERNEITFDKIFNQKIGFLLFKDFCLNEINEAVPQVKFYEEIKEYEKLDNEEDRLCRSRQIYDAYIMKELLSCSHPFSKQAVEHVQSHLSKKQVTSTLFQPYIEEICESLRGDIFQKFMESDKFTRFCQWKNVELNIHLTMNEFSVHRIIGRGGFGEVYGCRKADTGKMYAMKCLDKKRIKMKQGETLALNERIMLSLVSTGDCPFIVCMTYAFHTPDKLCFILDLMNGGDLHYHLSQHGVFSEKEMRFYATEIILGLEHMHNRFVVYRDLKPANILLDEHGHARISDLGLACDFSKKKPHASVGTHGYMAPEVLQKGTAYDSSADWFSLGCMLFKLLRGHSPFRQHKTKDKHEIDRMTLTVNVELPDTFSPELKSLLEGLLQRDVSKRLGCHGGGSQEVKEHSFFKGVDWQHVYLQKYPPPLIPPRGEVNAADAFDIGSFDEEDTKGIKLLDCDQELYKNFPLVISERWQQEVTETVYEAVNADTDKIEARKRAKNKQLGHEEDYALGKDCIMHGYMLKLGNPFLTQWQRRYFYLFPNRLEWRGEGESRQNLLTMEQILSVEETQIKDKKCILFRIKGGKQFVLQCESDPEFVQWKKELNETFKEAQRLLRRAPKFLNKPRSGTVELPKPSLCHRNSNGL

[4] = molecular target: T4, panel of 374 wild-type kinases (Homo sapiens, UniProt P08581); details: read-out: % Enzyme Activity (relative to DMSO controls), c-MET
T4 construct: purchased Reaction Biology Corporation

[5] = molecular target: T5, panel of 374 wild-type kinases (Homo sapiens, UniProt O00506); details: read-out: % Enzyme Activity (relative to DMSO controls), kinase STK25/YSK1
T5 construct: purchased Reaction Biology Corporation

[6] = molecular target: T6, panel of 374 wild-type kinases (Homo sapiens, UniProt P49760); details: read-out: % Enzyme Activity (relative to DMSO controls), CLK2
T6 construct: purchased Reaction Biology Corporation

[7] = molecular target: T7, panel of 374 wild-type kinases (Homo sapiens, UniProt P48729); details: read-out: % Enzyme Activity (relative to DMSO controls), CK1a1
T7 construct: purchased Reaction Biology Corporation

[8] = molecular target: T8, panel of 374 wild-type kinases (Homo sapiens, UniProt Q13557); details: read-out: % Enzyme Activity (relative to DMSO controls), CAMK2d
T8 construct: purchased Reaction Biology Corporation

[9] = molecular target: T9, panel of 374 wild-type kinases (Homo sapiens, UniProt Q9H422); details: read-out: % Enzyme Activity (relative to DMSO controls), HIPK3
T9 construct: purchased Reaction Biology Corporation

T6 sequence (P49760 whole entry): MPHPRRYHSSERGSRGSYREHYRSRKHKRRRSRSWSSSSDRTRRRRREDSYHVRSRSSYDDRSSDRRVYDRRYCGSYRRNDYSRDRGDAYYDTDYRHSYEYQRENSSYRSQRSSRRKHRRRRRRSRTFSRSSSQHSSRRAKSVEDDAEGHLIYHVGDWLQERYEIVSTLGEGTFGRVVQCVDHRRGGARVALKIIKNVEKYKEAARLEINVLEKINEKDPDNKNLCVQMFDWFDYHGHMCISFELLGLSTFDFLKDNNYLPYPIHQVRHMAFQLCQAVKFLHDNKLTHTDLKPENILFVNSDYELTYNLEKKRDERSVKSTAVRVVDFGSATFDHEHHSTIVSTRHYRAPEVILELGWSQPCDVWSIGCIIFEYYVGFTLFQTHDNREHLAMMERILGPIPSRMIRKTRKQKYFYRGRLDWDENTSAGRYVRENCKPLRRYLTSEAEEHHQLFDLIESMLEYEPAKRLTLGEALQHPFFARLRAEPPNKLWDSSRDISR
T5 sequence (O00506 whole entry): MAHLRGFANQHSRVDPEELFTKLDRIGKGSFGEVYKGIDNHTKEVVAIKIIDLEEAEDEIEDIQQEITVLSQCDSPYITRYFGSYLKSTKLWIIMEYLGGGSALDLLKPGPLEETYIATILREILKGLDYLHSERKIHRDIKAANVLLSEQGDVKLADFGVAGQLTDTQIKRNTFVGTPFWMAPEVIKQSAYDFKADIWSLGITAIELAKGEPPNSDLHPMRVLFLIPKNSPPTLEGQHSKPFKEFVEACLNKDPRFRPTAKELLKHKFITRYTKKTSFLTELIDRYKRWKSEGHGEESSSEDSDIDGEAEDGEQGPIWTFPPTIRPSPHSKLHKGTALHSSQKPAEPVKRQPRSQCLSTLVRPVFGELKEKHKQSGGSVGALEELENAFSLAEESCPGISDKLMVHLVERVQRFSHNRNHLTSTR
T1 sequence (Q76MJ5 35-926): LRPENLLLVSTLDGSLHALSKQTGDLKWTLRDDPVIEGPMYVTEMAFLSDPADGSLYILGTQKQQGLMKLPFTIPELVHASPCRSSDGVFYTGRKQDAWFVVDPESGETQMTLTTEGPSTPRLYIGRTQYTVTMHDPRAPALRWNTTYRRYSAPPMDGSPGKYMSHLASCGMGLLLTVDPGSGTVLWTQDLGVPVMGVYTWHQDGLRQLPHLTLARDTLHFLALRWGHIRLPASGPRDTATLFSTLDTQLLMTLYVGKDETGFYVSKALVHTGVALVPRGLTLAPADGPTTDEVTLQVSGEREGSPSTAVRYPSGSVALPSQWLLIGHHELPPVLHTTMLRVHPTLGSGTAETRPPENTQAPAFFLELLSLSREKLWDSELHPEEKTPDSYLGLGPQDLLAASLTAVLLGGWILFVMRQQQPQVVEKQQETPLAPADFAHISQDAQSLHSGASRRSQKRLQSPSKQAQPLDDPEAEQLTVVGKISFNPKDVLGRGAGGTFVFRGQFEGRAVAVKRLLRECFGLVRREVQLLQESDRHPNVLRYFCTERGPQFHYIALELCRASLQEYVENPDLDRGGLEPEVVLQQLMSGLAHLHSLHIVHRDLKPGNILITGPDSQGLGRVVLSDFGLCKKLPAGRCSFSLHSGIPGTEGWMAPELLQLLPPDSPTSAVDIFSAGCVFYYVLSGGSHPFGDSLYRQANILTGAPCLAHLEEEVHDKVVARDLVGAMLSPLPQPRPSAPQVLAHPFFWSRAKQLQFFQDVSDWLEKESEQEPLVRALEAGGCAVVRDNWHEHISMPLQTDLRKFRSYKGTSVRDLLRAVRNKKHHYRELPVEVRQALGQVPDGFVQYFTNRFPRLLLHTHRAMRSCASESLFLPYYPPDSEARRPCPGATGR
T7 sequence (P48729 whole entry): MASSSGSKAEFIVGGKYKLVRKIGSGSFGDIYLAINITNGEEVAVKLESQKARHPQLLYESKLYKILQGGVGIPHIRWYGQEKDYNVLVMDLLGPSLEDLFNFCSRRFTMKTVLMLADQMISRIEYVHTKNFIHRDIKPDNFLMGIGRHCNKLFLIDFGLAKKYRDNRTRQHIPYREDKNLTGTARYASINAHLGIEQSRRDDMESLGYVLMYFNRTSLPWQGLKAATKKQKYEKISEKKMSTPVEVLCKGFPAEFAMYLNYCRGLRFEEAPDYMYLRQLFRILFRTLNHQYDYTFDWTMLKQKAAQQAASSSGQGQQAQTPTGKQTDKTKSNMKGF
T4 sequence (P08581 25-1390): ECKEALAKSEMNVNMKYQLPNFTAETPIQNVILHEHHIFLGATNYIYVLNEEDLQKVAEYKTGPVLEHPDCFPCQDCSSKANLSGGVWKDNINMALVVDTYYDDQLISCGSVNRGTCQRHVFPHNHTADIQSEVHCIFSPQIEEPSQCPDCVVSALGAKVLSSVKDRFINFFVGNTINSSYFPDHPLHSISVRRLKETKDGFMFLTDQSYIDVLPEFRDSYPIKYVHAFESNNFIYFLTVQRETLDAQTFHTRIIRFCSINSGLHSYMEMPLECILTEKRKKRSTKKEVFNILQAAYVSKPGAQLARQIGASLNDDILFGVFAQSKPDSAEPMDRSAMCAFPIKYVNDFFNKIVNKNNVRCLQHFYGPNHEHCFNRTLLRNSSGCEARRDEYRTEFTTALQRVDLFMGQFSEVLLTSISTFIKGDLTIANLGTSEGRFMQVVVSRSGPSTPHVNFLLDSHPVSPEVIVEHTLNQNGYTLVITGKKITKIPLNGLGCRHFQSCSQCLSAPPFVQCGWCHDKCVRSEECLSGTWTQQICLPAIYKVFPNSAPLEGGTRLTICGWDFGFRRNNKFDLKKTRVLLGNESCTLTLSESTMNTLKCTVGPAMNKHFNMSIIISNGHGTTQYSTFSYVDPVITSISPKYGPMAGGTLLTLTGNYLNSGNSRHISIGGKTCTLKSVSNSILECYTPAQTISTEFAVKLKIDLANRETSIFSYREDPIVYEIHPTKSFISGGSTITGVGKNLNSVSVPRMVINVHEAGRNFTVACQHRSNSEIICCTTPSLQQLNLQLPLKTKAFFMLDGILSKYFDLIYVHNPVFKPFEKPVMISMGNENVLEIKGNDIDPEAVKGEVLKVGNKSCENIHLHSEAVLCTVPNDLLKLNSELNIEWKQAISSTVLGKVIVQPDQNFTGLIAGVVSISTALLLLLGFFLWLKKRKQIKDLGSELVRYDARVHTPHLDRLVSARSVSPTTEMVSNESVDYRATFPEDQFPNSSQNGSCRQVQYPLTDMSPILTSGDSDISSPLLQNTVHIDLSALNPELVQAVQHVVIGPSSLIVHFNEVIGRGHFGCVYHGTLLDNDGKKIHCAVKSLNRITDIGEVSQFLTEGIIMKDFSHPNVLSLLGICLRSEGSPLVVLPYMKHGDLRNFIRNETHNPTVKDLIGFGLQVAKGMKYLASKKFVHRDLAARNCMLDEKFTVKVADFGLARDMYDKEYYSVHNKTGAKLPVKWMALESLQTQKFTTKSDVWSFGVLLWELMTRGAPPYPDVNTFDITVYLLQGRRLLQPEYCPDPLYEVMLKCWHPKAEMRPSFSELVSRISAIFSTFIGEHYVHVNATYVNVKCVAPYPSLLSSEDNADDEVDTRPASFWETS
T8 sequence (Q13557 whole entry): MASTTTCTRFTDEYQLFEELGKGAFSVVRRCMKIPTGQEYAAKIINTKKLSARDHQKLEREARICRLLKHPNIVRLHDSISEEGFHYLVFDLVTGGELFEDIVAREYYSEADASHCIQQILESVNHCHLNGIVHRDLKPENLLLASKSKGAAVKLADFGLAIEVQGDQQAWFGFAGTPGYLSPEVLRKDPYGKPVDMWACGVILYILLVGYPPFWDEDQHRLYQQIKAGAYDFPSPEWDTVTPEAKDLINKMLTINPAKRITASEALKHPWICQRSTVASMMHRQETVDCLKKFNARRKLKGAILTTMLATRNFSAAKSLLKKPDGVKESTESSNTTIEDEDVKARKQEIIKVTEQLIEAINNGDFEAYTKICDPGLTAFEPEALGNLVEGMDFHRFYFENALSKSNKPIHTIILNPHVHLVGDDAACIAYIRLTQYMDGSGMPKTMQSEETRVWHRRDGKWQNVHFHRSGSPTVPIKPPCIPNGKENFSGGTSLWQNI

O=C(Nc1cnn(-c2csc(C(=O)NC3COC3)c2)c1)Nc1ccccc1Cl [Compound 17, 4-(4-(3-(2-chlorophenyl)ureido)-1H-pyrazol-1-yl)-N-(oxetan-3-yl)thiophene-2-carboxamide]
remaining activity at 5 µM [1]: 100% | remaining activity at 5 µM [2]: 99.9% | remaining activity at 5 µM [3]: 102% | remaining activity at 5 µM [4]: 102% | remaining activity at 5 µM [5]: 106% | remaining activity at 5 µM [6]: 103% | remaining activity at 5 µM [7]: 98.5% | remaining activity at 5 µM [8]: 103% | remaining activity at 5 µM [9]: 97.6%

O=C(Nc1cnn(-c2csc(C(=O)NC3COC3)c2)c1)Nc1c(F)cccc1Cl [Compound 25, 4-(4-(3-(2-chloro-6-fluorophenyl)ureido)-1H-pyrazol-1-yl)-N-(oxetan-3-yl)thiophene-2-carboxamide]
remaining activity at 5 µM [1]: 100% | remaining activity at 5 µM [2]: 94.3% | remaining activity at 5 µM [3]: 101% | remaining activity at 5 µM [4]: 86.1% | remaining activity at 5 µM [5]: 96.1% | remaining activity at 5 µM [6]: 112% | remaining activity at 5 µM [7]: 76.6% | remaining activity at 5 µM [8]: 93.5% | remaining activity at 5 µM [9]: 98.8%

Cc1sc(C(=O)NC2COC2)cc1-n1cc(NC(=O)Nc2c(F)cccc2Cl)cn1 [Compound 27, 4-(4-(3-(2-chloro-6-fluorophenyl)ureido)-1H-pyrazol-1-yl)-5-methyl-N-(oxetan-3-yl)thiophene-2-carboxamide]
remaining activity at 10 µM ([1]; 10 uM): 80.7% | remaining activity at 10 µM ([2]; 10 uM): 107% | remaining activity at 10 µM ([3]; 10 uM): 107% | remaining activity at 10 µM ([4]; 10 uM): 77% | remaining activity at 10 µM ([5]; 10 uM): 70.5% | remaining activity at 10 µM ([6]; 10 uM): 105% | remaining activity at 10 µM ([7]; 10 uM): 81.1% | remaining activity at 10 µM ([8]; 10 uM): 91.3% | remaining activity at 10 µM ([9]; 10 uM): 88.5%
